What all share (assay): relative viability (nuclei count vs DMSO), 5 days (fraction); higher = more cells survive
Compound in test [1]: C#Cc1cccc(Nc2ncnc3cc(OC)c(OCCCCCCC(=O)NO)cc23)c1 [CUDC-101] + CC(=O)Nc1cccc(-n2c(=O)n(C3CC3)c(=O)c3c(Nc4ccc(I)cc4F)n(C)c(=O)c(C)c32)c1 [Trametinib] (partner 0.02 µM)
In a few lines:
(§1)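 Medians of duplicate plates are given as relative viability. That measure is the nuclei count in treated wells divided by the count in vehicle wells. Counts were taken on 4× images of lung cancer cell lines in 1536-well plates, 5 days after pin-tool dosing the day after seeding with one drug alone or a fixed anchor-drug dose plus five library-drug doses (not always all listed) in √10 steps.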

Compound in test [2]: COc1cc2/c(=N/c3ccc(Br)cc3F)nc[nH]c2cc1OCC1CCN(C)CC1 [Vandetanib] + CC1(C)CCC(c2ccc(Cl)cc2)=C(CN2CCN(c3ccc(C(=O)NS(=O)(=O)c4ccc(N[C@H](CCN5CCOCC5)CSc5ccccc5)c(S(=O)(=O)C(F)(F)F)c4)cc3)CC2)C1 [Navitoclax] (partner 0.5 µM)
In a few lines:
as §1

Compound in test [3]: C1=CC=C2C(=C1)N=C(S2)C(C#N)C3=NC(=NC=C3)NCCC4=CN=CC=C4 + O=C(c1cc(Cc2n[nH]c(=O)c3ccccc23)ccc1F)N1CCN(C(=O)C2CC2)CC1 [Olaparib] (partner 8 µM)
Summed up: as §1

Compound in test [4]: COc1cc2/c(=N/c3ccc(Br)cc3F)nc[nH]c2cc1OCC1CCN(C)CC1 [Vandetanib] + Nc1ncn([C@H]2C[C@H](O)[C@@H](CO)O2)c(=O)n1 [Decitabine] (partner 2 µM)
In a few lines: as §1

As to HCC-78, the relative viability amounted to 0.781 in test [1] (first compound 0.01 µM); 0.711 in test [1] (first compound 0.03162 µM); 0.864 in test [1] (first compound 0.1 µM); 0.667 in test [1] (first compound 0.3162 µM); 0.545 in test [1] (first compound 1 µM); 0.732 in test [2] (first compound 0.02 µM). Further, the relative viability in test [2] (first compound 0.06325 µM) came out at 0.649; in test [2] (first compound 0.2 µM) it was 0.828; in test [2] (first compound 0.6325 µM), 0.887; in test [2] (first compound 2 µM), 0.573; in test [3] (first compound 0.005 µM), 0.852; in test [3] (first compound 0.01581 µM), 0.935. The relative viability in test [3] (first compound 0.05 µM) turned out to be 0.816; in test [3] (first compound 0.1581 µM), 0.936; in test [3] (first compound 0.5 µM), 0.756; in test [4] (first compound 0.02 µM), 0.715; in test [4] (first compound 0.06325 µM), 0.632; in test [4] (first compound 0.2 µM), 0.683. For the same cell line, the relative viability in test [4] (first compound 0.6325 µM) was found to be 0.689; in test [4] (first compound 2 µM) it was 0.643.

As for HCC-366, the relative viability was found to be 0.391 in test [1] (first compound 0.01 µM); 0.378 in test [1] (first compound 0.03162 µM); 0.312 in test [1] (first compound 0.1 µM); 0.366 in test [1] (first compound 0.3162 µM); 0.209 in test [1] (first compound 1 µM); 1.09 in test [2] (first compound 0.02 µM). For the same cell line, the relative viability was determined as 1 in test [2] (first compound 0.06325 µM); 1.06 in test [2] (first compound 0.2 µM); 1.06 in test [2] (first compound 0.6325 µM); 1.05 in test [2] (first compound 2 µM); 0.189 in test [3] (first compound 0.005 µM); 0.449 in test [3] (first compound 0.01581 µM). For the same cell line, the relative viability was 0.349 in test [3] (first compound 0.05 µM); 0.372 in test [3] (first compound 0.1581 µM); 0.354 in test [3] (first compound 0.5 µM); 0.291 in test [4] (first compound 0.02 µM); 0.355 in test [4] (first compound 0.06325 µM); 0.354 in test [4] (first compound 0.2 µM). The figures for the relative viability in test [4] (first compound 0.6325 µM) and in test [4] (first compound 2 µM) were 0.332 and 0.347, respectively.

Consider HCC-827, for which the relative viability in test [1] (first compound 0.01 µM) came to 0.53; in test [1] (first compound 0.03162 µM), 0.257; in test [1] (first compound 0.1 µM) it was 0.18; in test [1] (first compound 0.3162 µM), 0.183; in test [1] (first compound 1 µM), 0.147; in test [2] (first compound 0.02 µM), 1.04. For the same cell line, the relative viability in test [2] (first compound 0.06325 µM) came out at 0.975; in test [2] (first compound 0.2 µM), 0.993; in test [2] (first compound 0.6325 µM) it was 0.464; in test [2] (first compound 2 µM) it was 0.153; in test [3] (first compound 0.005 µM) it was 0.568; in test [3] (first compound 0.01581 µM), 0.616. The relative viability in test [3] (first compound 0.05 µM) is 0.728; in test [3] (first compound 0.1581 µM) it was 0.657; in test [3] (first compound 0.5 µM), 0.566; in test [4] (first compound 0.02 µM), 0.361; in test [4] (first compound 0.06325 µM), 0.302; in test [4] (first compound 0.2 µM), 0.335. In addition, the relative viability in test [4] (first compound 0.6325 µM) is 0.191; in test [4] (first compound 2 µM), 0.152.

Take HOP-62: the relative viability was determined as 0.362 in test [1] (first compound 0.01 µM); 0.361 in test [1] (first compound 0.03162 µM); 0.403 in test [1] (first compound 0.1 µM); 0.441 in test [1] (first compound 0.3162 µM); 0.346 in test [1] (first compound 1 µM); 0.975 in test [2] (first compound 0.02 µM). In addition, the relative viability amounted to 1.07 in test [2] (first compound 0.06325 µM); 0.999 in test [2] (first compound 0.2 µM); 1.18 in test [2] (first compound 0.6325 µM); 1.01 in test [2] (first compound 2 µM); 0.741 in test [3] (first compound 0.005 µM); 0.368 in test [3] (first compound 0.01581 µM). The relative viability in test [3] (first compound 0.05 µM) was 0.408; in test [3] (first compound 0.1581 µM), 0.265; in test [3] (first compound 0.5 µM), 0.191; in test [4] (first compound 0.02 µM), 0.244; in test [4] (first compound 0.06325 µM), 0.267; in test [4] (first compound 0.2 µM), 0.208. In addition, the relative viability in test [4] (first compound 0.6325 µM) was determined as 0.202; in test [4] (first compound 2 µM), 0.249.

Take IA-LM: the relative viability in test [2] (first compound 0.02 µM) is 0.648; in test [2] (first compound 0.06325 µM), 0.661; in test [2] (first compound 0.2 µM) it was 0.878; in test [2] (first compound 0.6325 µM) it was 1.1; in test [2] (first compound 2 µM), 1.29; in test [3] (first compound 0.01581 µM), 0.883. Moreover, the relative viability was 0.804 in test [3] (first compound 0.05 µM), 0.836 in test [3] (first compound 0.1581 µM) and 0.763 in test [3] (first compound 0.5 µM).

Turning to LC-2-ad, the relative viability in test [1] (first compound 0.01 µM) amounted to 0.929; in test [1] (first compound 0.03162 µM), 0.913; in test [1] (first compound 0.1 µM), 0.912; in test [1] (first compound 0.3162 µM), 0.823; in test [1] (first compound 1 µM), 0.773; in test [2] (first compound 0.02 µM) it was 0.44. Besides, the relative viability in test [2] (first compound 0.06325 µM) came to 0.482; in test [2] (first compound 0.2 µM), 0.548; in test [2] (first compound 0.6325 µM) it was 0.403; in test [2] (first compound 2 µM), 0.243; in test [3] (first compound 0.005 µM) it was 0.699; in test [3] (first compound 0.01581 µM) it was 0.701. Also, the relative viability in test [3] (first compound 0.05 µM) worked out at 0.762; in test [3] (first compound 0.1581 µM), 0.729; in test [3] (first compound 0.5 µM) it was 0.673; in test [4] (first compound 0.02 µM), 0.707; in test [4] (first compound 0.06325 µM), 0.729; in test [4] (first compound 0.2 µM), 0.89. In addition, the values for the relative viability in test [4] (first compound 0.6325 µM) and in test [4] (first compound 2 µM) were 0.836 and 0.616, respectively.

For the cell line LCLC-97TM1, the relative viability in test [1] (first compound 0.01 µM) turned out to be 0.175; in test [1] (first compound 0.03162 µM), 0.193; in test [1] (first compound 0.1 µM) it was 0.223; in test [1] (first compound 0.3162 µM), 0.227; in test [1] (first compound 1 µM), 0.164; in test [2] (first compound 0.02 µM), 0.399. Further, the relative viability was determined as 0.556 in test [2] (first compound 0.06325 µM); 0.345 in test [2] (first compound 0.2 µM); 0.403 in test [2] (first compound 0.6325 µM); 0.411 in test [2] (first compound 2 µM); 0.289 in test [3] (first compound 0.005 µM); 0.362 in test [3] (first compound 0.01581 µM). Besides, the relative viability in test [3] (first compound 0.05 µM) was 0.354; in test [3] (first compound 0.1581 µM), 0.592; in test [3] (first compound 0.5 µM), 0.362; in test [4] (first compound 0.02 µM), 0.223; in test [4] (first compound 0.06325 µM), 0.22; in test [4] (first compound 0.2 µM) it was 0.209. The relative viability in test [4] (first compound 0.6325 µM) amounted to 0.264; in test [4] (first compound 2 µM), 0.234.

For the cell line LCLC-103H, the relative viability in test [1] (first compound 0.01 µM) was determined as 0.666; in test [1] (first compound 0.03162 µM), 0.66; in test [1] (first compound 0.1 µM), 0.662; in test [1] (first compound 0.3162 µM), 0.707; in test [1] (first compound 1 µM), 0.681; in test [3] (first compound 0.005 µM), 0.628. The relative viability amounted to 0.829 in test [3] (first compound 0.01581 µM); 0.764 in test [3] (first compound 0.05 µM); 0.849 in test [3] (first compound 0.1581 µM); 0.649 in test [3] (first compound 0.5 µM); 0.733 in test [4] (first compound 0.02 µM); 0.729 in test [4] (first compound 0.06325 µM). Moreover, the relative viability came out at 0.659 in test [4] (first compound 0.2 µM), 0.75 in test [4] (first compound 0.6325 µM) and 0.762 in test [4] (first compound 2 µM).

(Values after the supplement of paper PMC10307832.)
